According to US9730913B2 (THE JOHNS HOPKINS UNIVERSITY, priority 2011, dated 2017):
Converted amounts (≈) assume the structure as drawn. “And” between values parts separate entries of the source, which are not always exact repeats. Equal entries are not always repeated.

What was measured:
AmpC β-lactamase = AmpC β-lactamase (Escherichia coli, UniProt P00811); assay: Spectrophotometric nitrocefin hydrolysis inhibition assay, AmpC
[1] = molecular target: wild type TEM-1 β-lactamase (Escherichia coli, UniProt P62593); assay: Spectrophotometric nitrocefin hydrolysis inhibition assay, TEM-1; type: biochemical; settings: for IC50: inhibition values are IC50 unless noted
Experimental: (§1) The inhibition of beta lactamase was determined spectrophotometrically. Beta lactamase activity was followed by measuring the change in absorbance upon hydrolysis of nitrocefin, [3-(2,4-dinitrostyryl)-(6R,7R)-7-(2-thienylacetamido)-ceph-3-em-4-carboxylic acid, E-isomer], (Calbiochem, San Diego, Calif., USA) at 486 nm. Inhibition constants (Ki) for the inhibitors are obtained at the desired temperature and solvent conditions by measuring the rate of substrate hydrolysis at increasing amounts of inhibitors. All inhibition assays were performed at 25° C. in 50 mM sodium phosphate, 5% DMSO, pH 7.0, keeping the enzyme concentration at 5 nM and the substrate concentration at 167 μM. Reaction was started by addition of substrate to the corresponding mixture of enzyme and inhibitor preincubated for 10 minutes.

[2] = molecular target: TEM-1 β-lactamase, Drug Resistant Mutants and AmpC β-lactamase; assay: Average Ki over TEM-1, drug resistant mutants and AmpC; type: biochemical; settings: mean over TEM-1, TEM-12, TEM-17, TEM-30, TEM-40, AmpC
Experimental: as §1

AmpC = settings: read-out: Inhibitory Potency (IC50) AmpC; cited from earlier work
IMP-1 beta-lactamase = IMP-1 beta-lactamase (Serratia marcescens, UniProt P52699); assay: Spectrophotometric nitrocefin hydrolysis inhibition assay, IMP-1
HSA = HSA (Homo sapiens, UniProt P02768); assay: HSA binding (Kd)
[3] = Microsomal stability (T1/2); type: in vitro ADME; settings: microsomes
Solubility = type: physicochemical
TEM-1 = TEM-1 (Escherichia coli, UniProt P62593); assay: TEM-1 binding enthalpy (ΔH)
[4] = tested on: Vancomycin-resistant (VRSA) Staphylococcus aureus; assay: Oxacillin MIC in presence of compound, VRSA; type: cell-based
[5] = tested on: Methicillin-resistant (MRSA) Staphylococcus aureus; assay: Oxacillin MIC in presence of compound, MRSA; type: cell-based
[6] = Oxacillin MIC with compound at 4 μg/mL

IMP-1 beta-lactamase, sequence (P52699 19-246, looked up): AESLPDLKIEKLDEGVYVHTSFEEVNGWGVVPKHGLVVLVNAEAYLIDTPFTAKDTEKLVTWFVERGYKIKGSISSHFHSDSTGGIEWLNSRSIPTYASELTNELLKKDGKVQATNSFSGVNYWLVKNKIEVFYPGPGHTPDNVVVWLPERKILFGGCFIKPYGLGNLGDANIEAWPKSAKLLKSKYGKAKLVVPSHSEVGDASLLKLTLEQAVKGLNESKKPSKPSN
wild type TEM-1 β-lactamase, sequence (P62593 24-286 limits assumed): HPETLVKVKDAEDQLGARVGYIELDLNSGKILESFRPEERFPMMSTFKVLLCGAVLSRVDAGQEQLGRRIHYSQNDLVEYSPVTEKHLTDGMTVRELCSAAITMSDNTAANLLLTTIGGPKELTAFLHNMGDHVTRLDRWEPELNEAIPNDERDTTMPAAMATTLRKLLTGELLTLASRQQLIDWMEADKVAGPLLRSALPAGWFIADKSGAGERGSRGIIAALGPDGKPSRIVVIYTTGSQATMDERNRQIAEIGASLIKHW
AmpC β-lactamase, sequence (P00811 20-377): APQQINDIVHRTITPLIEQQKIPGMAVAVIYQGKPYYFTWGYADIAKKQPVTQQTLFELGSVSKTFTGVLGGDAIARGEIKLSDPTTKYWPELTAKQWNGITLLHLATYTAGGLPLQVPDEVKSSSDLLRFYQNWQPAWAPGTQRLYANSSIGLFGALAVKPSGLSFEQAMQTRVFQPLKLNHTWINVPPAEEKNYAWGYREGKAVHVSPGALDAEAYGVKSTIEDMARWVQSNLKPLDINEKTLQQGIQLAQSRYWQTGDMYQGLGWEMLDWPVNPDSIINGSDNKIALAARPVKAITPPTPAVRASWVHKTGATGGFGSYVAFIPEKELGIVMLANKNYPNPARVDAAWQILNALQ
HSA, sequence (P02768 25-609): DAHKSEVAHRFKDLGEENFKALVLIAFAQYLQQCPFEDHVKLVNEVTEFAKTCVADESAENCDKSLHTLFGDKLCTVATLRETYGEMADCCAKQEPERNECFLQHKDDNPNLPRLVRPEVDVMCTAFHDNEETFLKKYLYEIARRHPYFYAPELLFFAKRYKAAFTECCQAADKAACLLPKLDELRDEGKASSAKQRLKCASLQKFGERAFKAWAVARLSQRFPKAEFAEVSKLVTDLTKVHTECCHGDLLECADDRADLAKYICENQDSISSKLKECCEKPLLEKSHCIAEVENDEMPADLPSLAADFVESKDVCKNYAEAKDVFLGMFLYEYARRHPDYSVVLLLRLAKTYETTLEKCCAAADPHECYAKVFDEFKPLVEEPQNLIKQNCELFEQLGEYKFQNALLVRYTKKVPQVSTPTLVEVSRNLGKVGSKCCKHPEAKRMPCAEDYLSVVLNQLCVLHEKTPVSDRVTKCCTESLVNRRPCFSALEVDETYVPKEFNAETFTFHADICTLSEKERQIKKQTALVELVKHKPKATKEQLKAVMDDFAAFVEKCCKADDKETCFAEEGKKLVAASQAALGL
TEM-1, sequence (P62593 24-286 limits assumed): as the sequence (P62593 24-286 limits assumed) above

SMILES	Kd (HSA)	half-life [3] [min]	IC50 (AmpC β-lactamase) [nM]	IC50 (IMP-1 beta-lactamase) [nM]	solubility (Solubility) [µM]	IC50 [1] [nM]	further results
O=S(=O)(/C=C/c1cccc(Br)c1)Nc1cccc(-c2nnn(Cc3cccc(Cl)c3)n2)c1	–	–	–	–	–	–	Ki (AmpC β-lactamase): 182 nM; mode of inhibition of TEM-1 beta-lactamase ([1]; double reciprocal plot, FIG. 3): competitive inhibition; Ki [2]: 362 nM
O=C(O)[C@H]1/C(=C/CO)O[C@@H]2CC(=O)N21 [Clavulanic Acid]	–	–	–	–	–	–	IC50 (AmpC): ≥ 59000 nM
CC1(C)[C@H](C(=O)O)N2C(=O)C[C@H]2S1(=O)=O [Sulbactam]	–	–	–	–	–	–	IC50 (AmpC): ≥ 3800 nM
O=S(=O)(/C=C/c1cccc(Cl)c1)N(Cc1cccc(Cl)c1)c1cccc(Cl)c1 [ef-rs-03-075]	–	–	–	–	–	–	Ki ([1]; 25° C., 50 mM sodium phosphate, 5% DMSO, pH 7.0, nitrocefin 167 μM, read-out: Ki TEM-1 (WT)): 82 ± 12 nM; Ki (IMP-1 beta-lactamase): 496 ± 57 nM
COc1ccc(NS(=O)(=O)/C=C/c2cccc(Cl)c2)cc1OCc1cccc(Cl)c1 [ef-rs-04-091]	4080 nM and 4260 nM	70 ± 8	671 ± 238	347 ± 43	19 (≈ 8.82 µg/mL)	–	TEM-1 ΔH (TEM-1): +1.75 kcal/mol
COc1cccc(/C=C/S(=O)(=O)Nc2cccc(OCc3cccc(Cl)c3)c2)c1 [ef-rs-05-054]	97.5 nM and 202 nM	59 ± 6	555 ± 36	734 ± 106	6 (≈ 2.58 µg/mL)	–	TEM-1 ΔH (TEM-1): +2.32 kcal/mol
O=S(=O)(/C=C/c1cccc(C(F)(F)F)c1)Nc1cccc(-c2nnn(Cc3cccc(Cl)c3)n2)c1 [ef-rs-05-076]	–	–	–	–	–	–	Ki (AmpC β-lactamase): 80 nM; Ki [2]: 176 nM
COc1ccc(NS(=O)(=O)/C=C/c2cccc([N+](=O)[O-])c2)cc1OCc1cccc(Cl)c1 [ef-rs-05-080]	4580 nM and 5350 nM	37 ± 4	563 ± 63	1100 ± 40	3 (≈ 1.42 µg/mL)	–	–
O=S(=O)(/C=C/c1cccc(Cl)c1)Nc1cccc(OCc2cccc(Cl)c2)c1 [ef-rs-08-048]	113 nM and 252 nM	120 ± 10	477 ± 59	487 ± 90	19 (≈ 8.25 µg/mL)	–	MIC (VRSA) [4 μg/ml] [4, 6]: 0.25; reduction of Oxacillin MIC ([4]; compound at 4 μg/mL): 8 fold; MIC (MRSA) [4 μg/mL] [5, 6]: 2; reduction of Oxacillin MIC ([5]; compound at 4 μg/mL): 8 fold
O=S(=O)(/C=C/c1cccc(Cl)c1)N(Cc1cccc(Cl)c1)c1cccc(OCc2cccc(Cl)c2)c1 [ef-rs-08-052, (E)-N-(3-chlorobenzyl)-N-(3-(3-chlorobenzyloxy)phenyl)-2-(3-chlorophenyl)ethenesulfonamide]	–	–	–	–	–	–	Ki (AmpC β-lactamase): 67 nM; Ki (IMP-1 beta-lactamase): 203 ± 51 nM
O=S(=O)(/C=C/c1cccc(Cl)c1)Nc1cccc(OCc2cccc(F)c2)c1 [ef-rs-09-012]	49 nM and 52 nM	81 ± 14	846 ± 100	157 ± 12	7 (≈ 2.93 µg/mL)	523 ± 84	–
COc1ccc(NS(=O)(=O)/C=C/c2cccc(Cl)c2)cc1O [ef-rs-09-014]	2510 ± 1780 nM	< 5	3750 ± 500	4690 ± 270	450 (≈ 153 µg/mL)	2470 ± 50	–
COc1cccc(COc2cc(NS(=O)(=O)/C=C/c3cccc(Cl)c3)ccc2OC)c1 [ef-rs-09-018]	348 ± 53 nM	22 ± 6	1070 ± 360	256 ± 33	50 (≈ 23 µg/mL)	702 ± 91	–
COc1cc(NS(=O)(=O)/C=C/c2cccc(Cl)c2)ccc1OCc1cccc(Cl)c1 [ef-rs-09-029]	484 ± 76 nM	–	706 ± 66	171 ± 20	8 (≈ 3.71 µg/mL)	406 ± 77	–
O=S(=O)(/C=C/c1cccc(Cl)c1)Nc1ccc(OCc2cccc(Cl)c2)cc1 [ef-rs-09-030]	301 ± 65 nM	–	553 ± 58	63 ± 8	6 (≈ 2.61 µg/mL)	85 ± 21	–
